# Values quoted from earlier work, collected in patent US20220202008A1, “BAIT FOR A PEST” (FALCON LIFE SCIENCES LTD, priority 2020, published 2022).
# Tested on: mouse
# Details: acute dose
compound,measurement,value
"COC(C)(C)CCCC(C)CC=CC(C)=CC(=O)OC(C)C (stereo not shown) [methoprene, isopropyl 11-methoxy-3,7,11-trimethyldodeca-2,4-dienoate]",LD50,around 5000 ppm
